Among the data in PMC4355294, “The Ingenious Structure of Central Rotor Apparatus in VoV1; Key for Both Complex Disassembly and Energy Coupling between V1 and Vo” (PLoS ONE, 2015) are Km values, retold here.

The subject of experiment [1] is T1, V1-E.h-DF.
T1 construct: gene atpA
The experiment is described as follows: enzyme-coupled ATP regenerating ATPase assay, Michaelis-Menten fit. Format: biochemical, Thermus thermophilus. The note with it: 25°C; isolated V1. The source says:
enzyme-coupled ATP regenerating ATPase assay, Michaelis-Menten fit on V1-E.h-DF

Experiment [2] deals with T2, V1-H.s-DF.
T2 construct: gene atpA
The description is as above. The experiment is classed as biochemical, Thermus thermophilus. The note with it: 25°C; isolated V1. The source says:
enzyme-coupled ATP regenerating ATPase assay, Michaelis-Menten fit on V1-H.s-DF

Structures are written as SMILES.

As to `Nc1ncnc2c1ncn2[C@@H]1O[C@H](COP(=O)(O)OP(=O)(O)OP(=O)(O)O)[C@@H](O)[C@H]1O` [ATP], the Km in experiment [1] is 760 ± 40 µM; in experiment [2], 480 ± 40 µM.

One may read the Km as the substrate concentration at which the rate is half of its maximum.
